From ChEMBL document CHEMBL5537140, “Discovery and exploration of novel somatostatin receptor subtype 5 (SSTR5) antagonists for the treatment of cholesterol gallstones” (Eur J Med Chem, 2024)
Calls of active or inactive are those of the source. No cut-off for these calls is given here.

How the values were obtained:
[1] = target: T1, Somatostatin receptor type 5 (Mus musculus, UniProt O08858); assay: Antagonist activity at N-terminal HA-tagged mouse SSTR5 expressed in CHO cells assessed as change in intracellular […] level preincubated with agonist for 10 mins followed by compound addition by CRE-driven luciferase reporter based microplate reader; assay type: functional, cell-based
T1 sequence (O08858 whole entry): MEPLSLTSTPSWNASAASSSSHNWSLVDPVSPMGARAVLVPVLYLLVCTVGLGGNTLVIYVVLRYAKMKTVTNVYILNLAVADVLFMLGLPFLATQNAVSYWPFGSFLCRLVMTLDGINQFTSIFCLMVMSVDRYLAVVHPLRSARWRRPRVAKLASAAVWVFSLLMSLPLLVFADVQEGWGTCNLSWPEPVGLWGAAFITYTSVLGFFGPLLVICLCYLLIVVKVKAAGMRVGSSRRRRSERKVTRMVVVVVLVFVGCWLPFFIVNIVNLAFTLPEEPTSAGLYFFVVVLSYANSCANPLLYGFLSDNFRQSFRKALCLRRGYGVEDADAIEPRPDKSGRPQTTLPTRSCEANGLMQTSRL

CHO = assay: Cytotoxicity against CHO cells upto 10 uM; details: chinese hamster
[2] = Metabolic stability in mouse liver microsomes assessed as parent compound remaining at 1 uM incubated for 30 mins in presence of NADPH by LC-MS/MS analysis; assay type: ADME, Microsome; details: read-out: Stability
[3] = target: Somatostatin receptor type 5 (Homo sapiens, UniProt P35346); assay: Antagonist activity at N-terminal HA-tagged human SSTR5 expressed in CHO cells assessed as change in intracellular […] level preincubated with agonist for 10 mins followed by compound addition by CRE-driven luciferase reporter based microplate reader; assay type: functional, cell-based
Chain of Somatostatin receptor type 5 (Homo sapiens, UniProt P35346) (P35346 whole entry): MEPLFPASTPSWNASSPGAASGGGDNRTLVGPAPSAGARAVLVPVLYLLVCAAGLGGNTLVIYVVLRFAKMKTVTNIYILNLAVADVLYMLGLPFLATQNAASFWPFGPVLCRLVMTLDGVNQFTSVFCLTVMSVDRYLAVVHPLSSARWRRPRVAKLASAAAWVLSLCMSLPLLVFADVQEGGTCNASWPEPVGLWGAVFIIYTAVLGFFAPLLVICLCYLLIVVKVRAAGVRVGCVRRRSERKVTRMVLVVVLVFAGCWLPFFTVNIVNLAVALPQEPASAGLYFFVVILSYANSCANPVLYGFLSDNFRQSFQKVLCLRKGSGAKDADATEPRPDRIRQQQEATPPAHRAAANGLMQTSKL

[4] = target: Voltage-gated inwardly rectifying potassium channel KCNH2 (Homo sapiens, UniProt Q12809); assay: Inhibition of hERG expressed in CHO cells by Qpatch automatic patch clamp method
Chain of Voltage-gated inwardly rectifying potassium channel KCNH2 (Q12809 whole entry): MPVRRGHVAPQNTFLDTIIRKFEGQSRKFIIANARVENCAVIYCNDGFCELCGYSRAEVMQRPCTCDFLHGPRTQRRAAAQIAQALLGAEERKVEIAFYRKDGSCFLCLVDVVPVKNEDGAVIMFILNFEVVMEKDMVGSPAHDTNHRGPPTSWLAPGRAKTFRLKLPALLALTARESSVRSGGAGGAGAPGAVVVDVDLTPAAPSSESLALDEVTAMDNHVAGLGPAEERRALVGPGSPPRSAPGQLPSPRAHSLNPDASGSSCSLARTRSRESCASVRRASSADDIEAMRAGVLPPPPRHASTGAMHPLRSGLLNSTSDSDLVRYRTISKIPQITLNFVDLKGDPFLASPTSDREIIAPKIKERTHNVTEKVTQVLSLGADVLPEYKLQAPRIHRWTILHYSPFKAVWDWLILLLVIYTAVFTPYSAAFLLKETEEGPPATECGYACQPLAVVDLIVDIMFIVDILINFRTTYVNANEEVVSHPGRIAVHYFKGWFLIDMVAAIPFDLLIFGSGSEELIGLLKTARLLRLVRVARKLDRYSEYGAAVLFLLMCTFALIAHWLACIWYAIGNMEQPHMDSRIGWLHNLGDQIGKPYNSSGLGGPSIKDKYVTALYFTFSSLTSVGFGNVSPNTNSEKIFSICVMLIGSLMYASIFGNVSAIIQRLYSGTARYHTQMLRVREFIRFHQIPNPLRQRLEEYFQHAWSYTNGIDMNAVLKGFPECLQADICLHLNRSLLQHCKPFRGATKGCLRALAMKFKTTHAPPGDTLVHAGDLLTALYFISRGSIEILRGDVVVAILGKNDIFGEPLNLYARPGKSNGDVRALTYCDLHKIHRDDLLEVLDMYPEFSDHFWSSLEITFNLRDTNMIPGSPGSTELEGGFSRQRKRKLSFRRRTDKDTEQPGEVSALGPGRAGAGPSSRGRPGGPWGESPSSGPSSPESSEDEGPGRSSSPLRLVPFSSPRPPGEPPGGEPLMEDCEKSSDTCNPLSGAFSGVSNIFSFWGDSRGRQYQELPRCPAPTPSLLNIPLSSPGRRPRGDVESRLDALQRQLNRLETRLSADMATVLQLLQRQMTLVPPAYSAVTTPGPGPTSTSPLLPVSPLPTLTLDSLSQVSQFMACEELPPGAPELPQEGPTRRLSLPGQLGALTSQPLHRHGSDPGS

Mus musculus [5] = assay: Protection against lithogenic diet induced cholesterol gallstone C57BL/6J mouse model assessed as reduction in cholesterol gallstone formation at 60 mg/kg, po administered once daily for 14 days; assay type: functional, organism-based; details: time 14.0 day
Mus musculus [6] = assay: Protection against lithogenic diet induced cholesterol gallstone C57BL/6J mouse model assessed as reduction in dense-cored gallstone precipitate at 60 mg/kg, po administered once daily for 14 days; assay type: functional, organism-based; details: time 14.0 day
[7] = Observed AUC (0 to infinity) in C57BL/6J mouse at 1 mg/kg, iv measured at 0.05 to 24 hrs by LC-MS/MS analysis; assay type: ADME, organism-based; details: in vivo, time 0.05-24 hrs
Mus musculus [8] = assay: Induction of gallbladder emptying in C57BL/6J mouse assessed as reduction in gallbladder weight at 10 mg/kg, po preadministered with compound for 30 mins followed by egg yolk administration and measured after 15 mins; assay type: functional, organism-based; details: time 45.0 min
[9] = Cmax in C57BL/6J mouse at 3 mg/kg, po measured at 0.25 to 24 hrs by LC-MS/MS analysis; assay type: ADME, organism-based; details: in vivo, time 0.25-24 hrs
[10] = Observed volume of distribution at steady state in C57BL/6J mouse at 1 mg/kg, iv measured at 0.05 to 24 hrs by LC-MS/MS analysis; assay type: ADME, organism-based; details: in vivo, time 0.05-24 hrs, read-out: Vdss
[11] = Metabolic stability in human liver microsomes assessed as parent compound remaining at 1 uM incubated for 30 mins in presence of NADPH by LC-MS/MS analysis; assay type: ADME, Microsome; details: read-out: Stability
Mus musculus [12] = assay: Protection against lithogenic diet induced cholesterol gallstone C57BL/6J mouse model assessed as reduction in large gallstone precipitate at 1 to 3 mg/kg, po administered once daily for 14 days; assay type: functional, organism-based; details: dose 1-3 mg/kg, time 14.0 day
Mus musculus [13] = assay: Protection against lithogenic diet induced cholesterol gallstone C57BL/6J mouse model assessed as reduction in large gallstone precipitate at 60 mg/kg, po administered once daily for 14 days; assay type: functional, organism-based; details: time 14.0 day
Mus musculus [14] = assay: Protection against lithogenic diet induced cholesterol gallstone C57BL/6J mouse model assessed as reduction in dense-cored gallstone precipitate at 1 to 3 mg/kg, po administered once daily for 14 days; assay type: functional, organism-based; details: dose 1-3 mg/kg, time 14.0 day
[15] = Tmax in C57BL/6J mouse at 3 mg/kg, po measured at 0.25 to 24 hrs by LC-MS/MS analysis; assay type: ADME, organism-based; details: in vivo, time 0.25-24 hrs
Mus musculus [16] = assay: Protection against lithogenic diet induced cholesterol gallstone C57BL/6J mouse model assessed as reduction in cholesterol gallstone formation at 1 to 3 mg/kg, po administered once daily for 14 days; assay type: functional, organism-based; details: dose 1-3 mg/kg, time 14.0 day
[17] = Cytotoxicity against CHO cells assessed as cellular ATP at 10 uM relative to control; assay type: toxicity, cell-based, Cricetulus griseus; details: chinese hamster, read-out: Activity
[18] = Oral bioavailability in C57BL/6J mouse at 3 mg/kg measured at 0.25 to 24 hrs by LC-MS/MS analysis; assay type: ADME, organism-based; details: in vivo, time 0.25-24 hrs
[19] = Observed clearance in C57BL/6J mouse at 1 mg/kg, iv measured at 0.05 to 24 hrs by LC-MS/MS analysis; assay type: ADME, organism-based; details: in vivo, time 0.05-24 hrs
[20] = Half-life in C57BL/6J mouse at 3 mg/kg, po measured at 0.25 to 24 hrs by LC-MS/MS analysis; assay type: ADME, organism-based; details: in vivo, time 0.25-24 hrs
[21] = Observed AUC (0 to infinity) in C57BL/6J mouse at 3 mg/kg, po measured at 0.25 to 24 hrs by LC-MS/MS analysis; assay type: ADME, organism-based; details: in vivo, time 0.25-24 hrs
[22] = Half-life in C57BL/6J mouse at 1 mg/kg, iv measured at 0.05 to 24 hrs by LC-MS/MS analysis; assay type: ADME, organism-based; details: in vivo, time 0.05-24 hrs

Row | SMILES | IC50 [1] [nM] | Activity (CHO) | other results
1 | CCOc1cc(CN2CCC(F)(COc3ccc(C(=O)O)cc3)CC2)cc(OCC)c1-c1ccc(F)cc1 | 14.8 | Non-Toxic | remaining at 0.5 h, 1 µM [2]: 61%
2 | CCOc1cc(CN2CCC(O)(CNc3ccc(C(=O)O)cc3)CC2)cc(OCC)c1-c1ccc(F)cc1 | 52 | Non-Toxic | 
3 | CCOc1cc(CN2CCC(CNc3ccc(C(=O)O)cc3)CC2)cc(OCC)c1-c1ccc(F)cc1 | 91.7 | Non-Toxic | 
4 | CN(C)C(=O)C(CCN1CCC(O)(c2ccc(Cl)cc2)CC1)(c1ccccc1)c1ccccc1 [LOPERAMIDE] | 63600 | Non-Toxic | IC50 [3]: 33100 nM
5 | CCOc1cc(CN2CCC(F)(CNc3ccc(C(=O)O)cc3OC)CC2)cc(OCC)c1-c1ccc(F)cc1 | 20.5 | Non-Toxic | 
6 | CCOc1cc(CN2CCC(O)(Cc3ccc(C(=O)O)cc3)CC2)cc(OCC)c1-c1ccc(F)cc1 | 176 | Non-Toxic | 
7 | CCOc1cc(CN2CCC(F)(CNc3ccc(C(=O)O)c(C)c3)CC2)cc(OCC)c1-c1ccc(F)cc1 | 97.5 | Non-Toxic | 
8 | CCOc1cc(CN2CCC(C)(C(=O)Nc3ccc(C(=O)O)cc3)CC2)cc(OCC)c1-c1ccc(F)cc1 | 12200 | Non-Toxic | 
9 | CCOc1cc(CN2CCC(COc3ccc(C(=O)O)cc3)CC2)cc(OCC)c1-c1ccc(F)cc1 | 11.5 |  | 
10 | CCOc1cc(CN2CCC(F)(C(=O)Nc3ccc(C(=O)O)cc3)CC2)cc(OCC)c1-c1ccc(F)cc1 | 2560 | Non-Toxic | 
11 | CCOc1cc(CN2CCC(F)(CNc3ccc(C(=O)O)cc3Cl)CC2)cc(OCC)c1-c1ccc(F)cc1 | 132 | Non-Toxic | 
12 | CCOc1cc(CN2CCC(O)(c3ccc(Cl)cc3)CC2)cc(OCC)c1-c1ccc(F)cc1 | 11100 | Non-Toxic | 
13 | CCOc1cc(CN2CCC(F)(CNc3ccc(C(=O)O)cc3)CC2)cc(OCC)c1-c1ccc(F)cc1 | 13.9 | Non-Toxic | IC50 [4]: > 20000 nM; remaining at 0.5 h, 1 µM [2]: 81.4%; IC50 [3]: 27.6 nM
14 | CCOc1cc(CN2CCC(F)(CNc3ccc(C(=O)O)cc3C)CC2)cc(OCC)c1-c1ccc(F)cc1 | 25.4 | Non-Toxic | 
15 | CCOc1cc(CN2CCC(F)(CNc3ccc(N)cc3)CC2)cc(OCC)c1-c1ccc(F)cc1 | 1770 | Non-Toxic | 
16 | CCOc1cc(CN2CCC(C)(COc3ccc(C(=O)O)cc3)CC2)cc(OCC)c1-c1ccc(F)cc1 | 1860 | Non-Toxic | IC50 [3]: 3410 nM
17 | CCOc1cc(CN2CCC(Oc3ccc(C(=O)O)cc3)CC2)cc(OCC)c1-c1ccc(F)cc1 | 44.3 | Non-Toxic | 
18 | CCOc1cc(CN2CC(COc3ccc(C(=O)O)cc3)C2)cc(OCC)c1-c1ccc(F)cc1 | 394 | Non-Toxic | 
19 | CCOc1cc(CN2CC(CNc3ccc(C(=O)O)cc3)C2)cc(OCC)c1-c1ccc(F)cc1 | 157 | Non-Toxic | 
20 | CCOc1cc(CN2CCC(C(=O)Nc3ccc(C(=O)O)cc3)CC2)cc(OCC)c1-c1ccc(F)cc1 | 853 | Non-Toxic | 
21 | CCOc1cc(CN2CC(Nc3ccc(C(=O)O)cc3)C2)cc(OCC)c1-c1ccc(F)cc1 | 183 | Non-Toxic | IC50 [3]: 1010 nM
22 | CCOc1cc(CN2CCC(O)(C(=O)Nc3ccc(C(=O)O)cc3)CC2)cc(OCC)c1-c1ccc(F)cc1 | 14700 | Non-Toxic | IC50 [3]: 22900 nM
23 | CCOc1cc(CN2CCC(F)(CNc3ccc(O)cc3)CC2)cc(OCC)c1-c1ccc(F)cc1 | 1300 | Non-Toxic | 
24 | CCOc1cc(CN2CCC(F)(CNc3ccc(C(=O)O)c(Cl)c3)CC2)cc(OCC)c1-c1ccc(F)cc1 | 42.2 | Non-Toxic | 
25 | CCOc1cc(CN2CCC(C)(CNc3ccc(C(=O)O)cc3)CC2)cc(OCC)c1-c1ccc(F)cc1 | 128 | Non-Toxic | 
26 | C[C@H](CCC(=O)O)[C@H]1CC[C@H]2[C@@H]3[C@@H](O)C[C@@H]4C[C@H](O)CC[C@]4(C)[C@H]3CC[C@]12C |  |  | Activity (Mus musculus [5]): Active
27 | CCOc1cc(CN2CCC(F)(CNc3ccc(C(=O)O)c(OC)c3)CC2)cc(OCC)c1-c1ccc(F)cc1 | 1.4 | Non-Toxic | Activity (Mus musculus [6]): Active; AUC(0-inf) [7]: 562 ng·h/mL; Activity (Mus musculus [8]): Active; Cmax [9]: 208 ng/mL; Vd [10]: 2.6 L/kg; remaining at 0.5 h, 1 µM [11]: 92.5%; Activity (Mus musculus [12]): Active; Activity (Mus musculus [13]): Active; Activity (Mus musculus [14]): Active; IC50 [4]: > 20000 nM; Tmax [15]: 0.33 h; Activity (Mus musculus [16]): Active; viability at 10 µM [17]: 92%; bioavailability [18]: 29.3%; clearance [19]: 30.5 mL/min/kg; half-life [20]: 3.58 h; remaining at 0.5 h, 1 µM [2]: 59.8%; AUC(0-inf) [21]: 494 ng·h/mL; half-life [22]: 2.45 h; IC50 [3]: 2.8 nM
28 | CCOc1cc(CN2CCC(O)(COc3ccc(C(=O)O)cc3)CC2)cc(OCC)c1-c1ccc(F)cc1 | 51.1 | Non-Toxic | 
